Tests used:
Assay type in all cases: nucleic-acid assay
i-motif DNA [1] = assay: Displacement of thiazole orange from human ILPR i-motif DNA at 10 equiv. at pH 7.4 by fluorescent intercalator displacement assay
i-motif DNA [2] = assay: Displacement of thiazole orange from human telomeric 1ELN i-motif DNA at 10 equiv. at pH 7.4 by fluorescent intercalator displacement assay
i-motif DNA [3] = assay: Displacement of thiazole orange from human telomeric 1ELN i-motif DNA at 10 equiv. at pH 5.5 by fluorescent intercalator displacement assay
i-motif DNA [4] = assay: Displacement of thiazole orange from human ILPR i-motif DNA at 10 equiv. at pH 5.5 by fluorescent intercalator displacement assay
i-motif DNA [5] = assay: Binding affinity to human telomeric 1ELN i-motif DNA assessed as change in melting temperature at 20 uM at pH 5.5 by FRET assay
dsDNA [6] = assay: Displacement of thiazole orange from human 1BNA double stranded DNA at 100 equiv. at pH 7.4 by fluorescent intercalator displacement assay
Quadruplex DNA [7] = assay: Displacement of thiazole orange from human ILPR G4 quadruplex DNA at 100 equiv. at pH 7.4 by fluorescent intercalator displacement assay
Quadruplex DNA [8] = assay: Displacement of thiazole orange from human telomeric IKF1 G4 quadruplex DNA at 100 equiv. at pH 7.4 by fluorescent intercalator displacement assay
i-motif DNA [9] = assay: Displacement of thiazole orange from human telomeric 1ELN i-motif DNA at 100 equiv. at pH 5.5 by fluorescent intercalator displacement assay
dsDNA [10] = assay: Binding affinity to human 1BNA double stranded DNA assessed as change in melting temperature at 20 uM at pH 7.4 by FRET assay
i-motif DNA [11] = assay: Binding affinity to human telomeric 1ELN i-motif DNA assessed as change in melting temperature at 20 uM at pH 7.4 by FRET assay
Quadruplex DNA [12] = assay: Displacement of thiazole orange from human ILPR G4 quadruplex DNA at 10 equiv. at pH 7.4 by fluorescent intercalator displacement assay
Quadruplex DNA [13] = assay: Binding affinity to human ILPR G4 quadruplex DNA assessed as change in melting temperature at 20 uM at pH 7.4 by FRET assay
i-motif DNA [14] = assay: Displacement of thiazole orange from human ILPR i-motif DNA at 100 equiv. at pH 7.4 by fluorescent intercalator displacement assay
i-motif DNA [15] = assay: Displacement of thiazole orange from human ILPR i-motif DNA at 100 equiv. at pH 5.5 by fluorescent intercalator displacement assay
dsDNA [16] = assay: Displacement of thiazole orange from human 1BNA double stranded DNA at 10 equiv. at pH 7.4 by fluorescent intercalator displacement assay
Quadruplex DNA [17] = assay: Displacement of thiazole orange from human telomeric IKF1 G4 quadruplex DNA at 10 equiv. at pH 7.4 by fluorescent intercalator displacement assay
i-motif DNA [18] = assay: Displacement of thiazole orange from human telomeric 1ELN i-motif DNA at 100 equiv. at pH 7.4 by fluorescent intercalator displacement assay
i-motif DNA [19] = assay: Binding affinity to human ILPR i-motif DNA assessed as change in melting temperature at 20 uM at pH 5.5 by FRET assay
Quadruplex DNA [20] = assay: Binding affinity to human telomeric IKF1 G4 quadruplex DNA assessed as change in melting temperature at 20 uM at pH 7.4 by FRET assay
i-motif DNA [21] = assay: Binding affinity to human ILPR i-motif DNA assessed as change in melting temperature at 20 uM at pH 7.4 by FRET assay
i-motif DNA [22] = assay: Binding affinity to human c-Myc promoter i-motif DNA by SPR analysis
dsDNA [23] = assay: Binding affinity to human double stranded DNA by SPR analysis
i-motif DNA [24] = assay: Binding affinity to human telomeric i-motif DNA by SPR analysis

O=C(O)[C@H]1O[C@@H](Oc2cc3oc(-c4ccccc4)cc(=O)c3c(O)c2O)[C@H](O)[C@@H](O)[C@@H]1O
Activity (i-motif DNA [1]): 23.9% | Activity (i-motif DNA [2]): -3.8% | Activity (i-motif DNA [3]): 12.2% | Activity (i-motif DNA [4]): 9.5% | ΔTm (i-motif DNA [5]): -0.4 °C | Activity (dsDNA [6]): 25.3% | Activity (Quadruplex DNA [7]): 17.7% | Activity (Quadruplex DNA [8]): 46.3% | Activity (i-motif DNA [9]): 36.5% | ΔTm (dsDNA [10]): -2.5 °C | ΔTm (i-motif DNA [11]): -3.9 °C | Activity (Quadruplex DNA [12]): 4.9% | ΔTm (Quadruplex DNA [13]): -3.8 °C | Activity (i-motif DNA [14]): 38.5% | Activity (i-motif DNA [15]): 35.3% | Activity (dsDNA [16]): 8.2% | Activity (Quadruplex DNA [17]): 24% | Activity (i-motif DNA [18]): -91.2% | ΔTm (i-motif DNA [19]): -0.3 °C | ΔTm (Quadruplex DNA [20]): -1.8 °C | ΔTm (i-motif DNA [21]): -2.6 °C

COC(=O)C1=CO[C@@H](O[C@@H]2O[C@H](CO)[C@@H](O)[C@H](O)[C@H]2O)[C@@H]2C(CO)=CC[C@H]12
Activity (i-motif DNA [1]): 21.2% | Activity (i-motif DNA [2]): -32% | Activity (i-motif DNA [3]): -9.5% | Activity (i-motif DNA [4]): 7.2% | ΔTm (i-motif DNA [5]): -0.5 °C | Activity (dsDNA [6]): 11.2% | Activity (Quadruplex DNA [7]): 1.8% | Activity (Quadruplex DNA [8]): 25.7% | Activity (i-motif DNA [9]): 32.3% | ΔTm (dsDNA [10]): -3.5 °C | ΔTm (i-motif DNA [11]): -1.8 °C | Activity (Quadruplex DNA [12]): -6.7% | ΔTm (Quadruplex DNA [13]): -2.9 °C | Activity (i-motif DNA [14]): 31.8% | Activity (i-motif DNA [15]): 27.9% | Activity (dsDNA [16]): 8.5% | Activity (Quadruplex DNA [17]): 23.1% | Activity (i-motif DNA [18]): -84.1% | ΔTm (i-motif DNA [19]): -0.1 °C | ΔTm (Quadruplex DNA [20]): -6.1 °C | ΔTm (i-motif DNA [21]): -1.8 °C

NC[C@H]1O[C@H](O[C@H]2[C@H](O)[C@@H](O[C@H]3O[C@H](CO)[C@@H](O)[C@H](N)[C@H]3O)[C@H](N)C[C@@H]2N)[C@H](N)C[C@@H]1O [TOBRAMYCIN]
Kd (i-motif DNA [22]): 13 µM | Kd (dsDNA [23]): 18 µM | Kd (i-motif DNA [24]): 17 µM

O=c1c(-c2ccc(O)cc2)coc2cc(O[C@@H]3O[C@H](CO)[C@@H](O)[C@H](O)[C@H]3O)cc(O)c12
Activity (i-motif DNA [1]): 24.2% | Activity (i-motif DNA [2]): 16.2% | Activity (i-motif DNA [3]): 0.6% | Activity (i-motif DNA [4]): 5.3% | ΔTm (i-motif DNA [5]): -0.8 °C | Activity (dsDNA [6]): 14.5% | Activity (Quadruplex DNA [7]): 6.4% | Activity (Quadruplex DNA [8]): 28.7% | Activity (i-motif DNA [9]): 19.3% | ΔTm (dsDNA [10]): -3 °C | ΔTm (i-motif DNA [11]): -5.4 °C | Activity (Quadruplex DNA [12]): 1.6% | ΔTm (Quadruplex DNA [13]): -4.7 °C | Activity (i-motif DNA [14]): 31.8% | Activity (i-motif DNA [15]): 23.5% | Activity (dsDNA [16]): 6.2% | Activity (Quadruplex DNA [17]): 20.8% | Activity (i-motif DNA [18]): -288% | ΔTm (i-motif DNA [19]): -0.4 °C | ΔTm (Quadruplex DNA [20]): -6.6 °C | ΔTm (i-motif DNA [21]): -2.4 °C

O=C(O)C1=CO[C@@H](O[C@@H]2O[C@H](CO)[C@@H](O)[C@H](O)[C@H]2O)[C@@H]2C(CO)=CC[C@H]12
Activity (i-motif DNA [1]): 12.3% | Activity (i-motif DNA [2]): 2.6% | Activity (i-motif DNA [3]): -10.2% | Activity (i-motif DNA [4]): -3.5% | ΔTm (i-motif DNA [5]): -0.5 °C | Activity (dsDNA [6]): 9.6% | Activity (Quadruplex DNA [7]): 1.4% | Activity (Quadruplex DNA [8]): 25.2% | Activity (i-motif DNA [9]): 22.9% | ΔTm (dsDNA [10]): -4.8 °C | ΔTm (i-motif DNA [11]): -2.5 °C | Activity (Quadruplex DNA [12]): 4.1% | ΔTm (Quadruplex DNA [13]): -3.6 °C | Activity (i-motif DNA [14]): 22% | Activity (i-motif DNA [15]): 25.3% | Activity (dsDNA [16]): 6.4% | Activity (Quadruplex DNA [17]): 23% | Activity (i-motif DNA [18]): -37.8% | ΔTm (i-motif DNA [19]): -0.3 °C | ΔTm (Quadruplex DNA [20]): -4.7 °C | ΔTm (i-motif DNA [21]): -2.2 °C

O=c1c(-c2ccc(O)cc2)coc2cc(O[C@@H]3O[C@H](CO)[C@@H](O)[C@H](O)[C@H]3O)ccc12
Activity (i-motif DNA [1]): 20% | Activity (i-motif DNA [2]): 14.9% | Activity (i-motif DNA [3]): -4.2% | Activity (i-motif DNA [4]): -2.5% | ΔTm (i-motif DNA [5]): -0.3 °C | Activity (dsDNA [6]): 10.9% | Activity (Quadruplex DNA [7]): 2.4% | Activity (Quadruplex DNA [8]): 29% | Activity (i-motif DNA [9]): 20.3% | ΔTm (dsDNA [10]): -2.3 °C | ΔTm (i-motif DNA [11]): 0 °C | Activity (Quadruplex DNA [12]): 2.6% | ΔTm (Quadruplex DNA [13]): -1.8 °C | Activity (i-motif DNA [14]): 28.9% | Activity (i-motif DNA [15]): 22.6% | Activity (dsDNA [16]): 7% | Activity (Quadruplex DNA [17]): 20.9% | Activity (i-motif DNA [18]): -154% | ΔTm (i-motif DNA [19]): -0.1 °C | ΔTm (Quadruplex DNA [20]): -2.4 °C | ΔTm (i-motif DNA [21]): -2.4 °C

OC[C@H]1O[C@@H](O[C@@H]2[C@@H](CO)O[C@](O)(CO)[C@H]2O)[C@H](O)[C@@H](O)[C@H]1O
Activity (i-motif DNA [1]): 26.7% | Activity (i-motif DNA [2]): -54% | Activity (i-motif DNA [3]): -28.4% | Activity (i-motif DNA [4]): -5% | ΔTm (i-motif DNA [5]): -0.4 °C | Activity (dsDNA [6]): 9% | Activity (Quadruplex DNA [7]): 0.4% | Activity (Quadruplex DNA [8]): 26.1% | Activity (i-motif DNA [9]): 20.2% | ΔTm (dsDNA [10]): -2.7 °C | ΔTm (i-motif DNA [11]): -3.7 °C | Activity (Quadruplex DNA [12]): 0.9% | ΔTm (Quadruplex DNA [13]): -4.6 °C | Activity (i-motif DNA [14]): 34.7% | Activity (i-motif DNA [15]): 23.1% | Activity (dsDNA [16]): 4.3% | Activity (Quadruplex DNA [17]): 21.4% | Activity (i-motif DNA [18]): -68% | ΔTm (i-motif DNA [19]): -0.3 °C | ΔTm (Quadruplex DNA [20]): -4 °C | ΔTm (i-motif DNA [21]): -2.7 °C

O=c1ccc2cc(O[C@@H]3O[C@H](CO)[C@@H](O)[C@H](O)[C@H]3O)c(O)cc2o1
ΔTm (i-motif DNA [5]): -0.4 °C | ΔTm (dsDNA [10]): -2.7 °C | ΔTm (i-motif DNA [11]): -6.4 °C | ΔTm (Quadruplex DNA [13]): -2.4 °C | ΔTm (i-motif DNA [19]): 0 °C | ΔTm (Quadruplex DNA [20]): -7.6 °C | ΔTm (i-motif DNA [21]): -2.6 °C
